These results are taken from patent US12180249B1, “Compositions and methods for selective labeling of secondary amines” (Emory University, priority 2021, dated 2024).

The nature of the series: chemical stability of the triazene-coupling product under different conditions. Format: physicochemical. The following applies: incubated in water:ACN mixture for 24 h. The procedure:
The chemical stability of the triazene-coupling product was tested under different conditions. The triazene-coupling product acts as a protecting group for secondary amines and tolerates various coupling reagents, such as N,N′-diisopropylcarbodiimide (DIC), and bases, such as N,N-diisopropylethylamine (DIEA) and pyridine (PPR), which is required for Fmoc peptide synthesis. It is also stable to a strong protein disulfide reducing agent tris(2-carboxyethyl) phosphine (TCEP) and click chemistry (CuAAC) conditions. […] This is in contrast to the stability of the azo coupling product with Tyr, which degrades quickly in the presence of sodium dithionate to generate modified tyrosine
Even though the triazene-secondary amine linkage is stable under physiologically relevant conditions, experiments were performed to determine whether the conjugate can be decoupled in a traceless manner. Indeed, exposure of the triazene modified peptide 4 MDz-AKmeF to acidic conditions (10% TFA in H2O) led to its rapid cleavage in 5 min to unchanged peptide AKmeF, as observed by HPLC and MS analysis. It is noteworthy that the acidic cleavage generated original coupling partners in an unperturbed manner. In contrast, a handful of the coupling reactions are reversible, but the products derived from decoupling are modified versions of the original reactants. […]

Molecules are shown by their SMILES.

As for `COC(=O)C1CCCN1N=Nc1ccc(OC)cc1` (stereo not shown) [4 MDz-Pro-OMe], the “decomposition of the triazene-coupling product” value is “no decomposition”.
